# Laboratory results taken from ChEMBL document CHEMBL5244255, “An insight on medicinal attributes of 1,2,4-triazoles” (Eur J Med Chem, 2020).
# pIC50: −log10 of the molar value.
# Experiments:
# [1] = test system: MDA-MB-231; experiment: Antiproliferative activity against human MDA-MB-231 cells assessed as cell growth inhibition by MTT assay; format: functional, cell-based
# [2] = test system: Plasmodium falciparum; experiment: Antimalarial activity against Plasmodium falciparum; format: functional, organism-based
# [3] = test system: Mycobacterium tuberculosis; experiment: Antimycobacterial activity against Mycobacterium tuberculosis H37Rv measured after 21 days; format: functional; conditions: 504 h, time 21 day
# [4] = test system: Mycobacterium tuberculosis; experiment: Antimycobacterial activity against Mycobacterium tuberculosis H37Rv measured […] by MABA assay; format: functional
# [5] = test system: Mycobacterium tuberculosis; experiment: Potency index, ratio of test compound MIC to Pyrazinamide MIC for antimycobacterial activity against Mycobacterium tuberculosis H37Rv; format: functional
# [6] = test system: Candida albicans; experiment: Antifungal activity against Candida albicans Y0109 assessed as fungal growth inhibition; format: functional
# [7] = test system: Jurkat; experiment: Antiproliferative activity against human jurkat cells assessed as cell growth inhibition incubated for 48 hrs by MTT assay; format: functional, cell-based
# [8] = test system: RS4-11; experiment: Antiproliferative activity against human RS4-11 cells assessed as cell growth inhibition incubated for 48 hrs by MTT assay; format: functional, cell-based; conditions: RS4-11, 48 h
# [9] = test system: HeLa; experiment: Antiproliferative activity against human HeLa cells assessed as cell growth inhibition incubated for 48 hrs by MTT assay; format: functional, cell-based
# [10] = test system: HT-29; experiment: Antiproliferative activity against human HT-29 cells assessed as cell growth inhibition incubated for 48 hrs by MTT assay; format: functional, cell-based; conditions: HT-29, 48 h
# [11] = test system: MCF7; experiment: Antiproliferative activity against human MCF7 cells assessed as cell growth inhibition incubated for 48 hrs by MTT assay; format: functional, cell-based; conditions: MCF7, 48 h
# [12] = test system: Xanthomonas oryzae pv. oryzae; experiment: Antibacterial activity against Xanthomonas oryzae pv. oryzae assessed as bacterial growth inhibition; format: functional, organism-based
# [13] = test system: Mycobacterium tuberculosis; experiment: Antimycobacterial activity against Mycobacterium tuberculosis H37Rv measured after 8 to 9 days; format: functional; conditions: time 8-9 day
# [14] = Inhibition of Mycobacterium tuberculosis shikimate dehydrogenase
# [15] = test system: Trypanosoma cruzi; experiment: Trypanocidal activity against amastigote stage of Trypanosoma cruzi; format: functional, organism-based
# [16] = test system: Trypanosoma cruzi; experiment: Trypanocidal activity against epimastigote stage of Trypanosoma cruzi; format: functional, organism-based
# [17] = test system: Mycobacterium tuberculosis; experiment: Antimycobacterial activity against Mycobacterium tuberculosis H37Rv; format: functional
# [18] = test system: BT-20; experiment: Anticancer activity against human BT-20 cells assessed as cell growth inhibition incubated for 48 hrs by MTT assay; format: functional, cell-based; conditions: BT-20, 48 h
# [19] = test system: DU-145; experiment: Anticancer activity against human DU-145 cells assessed as cell growth inhibition incubated for 48 hrs by MTT assay; format: functional, cell-based; conditions: DU-145, 48 h
# [20] = test system: A549; experiment: Anticancer activity against human A549 cells assessed as cell growth inhibition incubated for 48 hrs by MTT assay; format: functional, cell-based; conditions: A549, 48 h
# [21] = Anticancer activity against human SK-MEL-128 cells assessed as cell growth inhibition incubated for 48 hrs by MTT assay; format: functional, cell-based; conditions: SK-MEL-128, 48 h
# [22] = test system: Staphylococcus aureus; experiment: Antibacterial activity against Staphylococcus aureus assessed as bacterial growth inhibition incubated for 16 hrs; format: functional
# [23] = test system: Leishmania major; experiment: Antileishmanial activity against promastigotes stage of Leishmania major; format: functional, organism-based
# [24] = test system: Leishmania major; experiment: Potency index, ratio of test compound IC50 to miltefosine IC50 for antileishmanial activity against promastigotes stage of leishmania major; format: functional
# [25] = test system: Leishmania major; experiment: Potency index, ratio of test compound IC50 to amphotericin B IC50 for antileishmanial activity against promastigotes stage of leishmania major; format: functional
# [26] = Plasmodium falciparum, read-out: IC50
smiles,measurement,setting,value
Cc1nn(-c2ccccc2)c(=O)n1-n1c(-c2cc3ccccc3oc2=O)cs/c1=N\c1ccc(Cl)cc1,IC50,[1],0.16 µg/mL
COc1ccc(-c2cc(-c3c(C)nn(-c4ccccc4)c3-n3cncn3)n3c(c2)nc2ccccc23)cc1,IC50,[2]; [26],0.041 µg/mL
CC(C)=CCC/C(C)=C/COc1ccc(/C=C/c2nnc3c4ccccc4cnn23)cc1,MIC,[3],0.5 µg/mL
O=c1cc(Cn2cc(Cn3cnn(-c4ccccc4)c3=O)nn2)c2c(ccc3ccccc32)o1,MIC,[4],1.6 µg/mL
same,Ratio,[5],2
CC(C)(C)C(=O)OC1CCN(CC(O)(Cn2cncn2)c2ccc(F)cc2F)CC1 (stereo unspecified),MIC80,[6],9 nM
COc1cc(C(=O)n2nc(-c3ccc(Br)cc3)nc2N)cc(OC)c1OC,pIC50,[7],> 6.00
same,pIC50,[8],> 6.00
same,pIC50,[9],> 6.00
same,pIC50,[10],> 6.00
same,pIC50,[11],> 6.00
COc1ccc(-n2ncn(Cc3cn(Cc4cc(=O)oc5ccc(C)cc45)nn3)c2=O)cc1,MIC,[4],1.6 µg/mL
same,Ratio,[5],2
COc1ccc(-n2ncn(Cc3cn(Cc4cc(=O)oc5ccc(C(C)(C)C)cc45)nn3)c2=O)cc1,MIC,[4],1.6 µg/mL
same,Ratio,[5],2
COc1ccc(-n2ncn(Cc3cn(Cc4cc(=O)oc5ccc(Cl)cc45)nn3)c2=O)cc1,MIC,[4],1.6 µg/mL
same,Ratio,[5],2
O=C(CSc1nnc(C2CCN(c3ncnc4ccccc34)CC2)n1-c1ccccc1)Nc1cccc(F)c1,EC50,[12],34.5 µg/mL
O=C(CCl)OC1CCN(CC(O)(Cn2cncn2)c2ccc(F)cc2F)CC1 (stereo unspecified),MIC80,[6],9 nM
Clc1ccc(-c2nnc3sc(COc4ccc(Br)cc4)nn23)cc1,MIC,[13],6.82 µg/mL
same,IC50,[14],6.82 µg/mL
CCCCCCCCCC(=O)OC1CCN(CC(O)(Cn2cncn2)c2ccc(F)cc2F)CC1 (stereo unspecified),MIC80,[6],9 nM
COc1cccc(NC(=O)CSc2nnc(C3CCN(c4ncnc5ccccc45)CC3)n2-c2ccccc2)c1,EC50,[12],34.5 µg/mL
CCCCCCCCCCCC(=O)OC1CCN(CC(O)(Cn2cncn2)c2ccc(F)cc2F)CC1 (stereo unspecified),MIC80,[6],9 nM
Cc1nn(-c2ccccc2)c(-n2cncn2)c1-c1cc(-c2ccc(F)cc2)cc2nc3ccccc3n12,IC50,[2],0.041 µg/mL
same,IC50,[2]; [26],0.041 µg/mL
CC(C)SC1NN=C(/C=C/C=C/c2ccc3c(c2)OCO3)N1C1CCCCC1 (stereo unspecified),pIC50,[15],5.44
same,pIC50,[16],5.50
Cc1nn(-c2ccccc2)c(-n2cncn2)c1-c1cc(-c2ccc(O)cc2)cc2nc3ccccc3n12,IC50,[2],0.041 µg/mL
same,IC50,[2]; [26],0.054 µg/mL
OC1(c2nnc(-c3ccncc3)[nH]2)CCCC1,MIC,[17],0.59 µg/mL
Nn1c(Cc2ccc(Br)cc2)nn(CC(=O)NNC(=O)c2cc3cc(Cl)cc(Cl)c3oc2=O)c1=O,IC50,[18],3.1 µg/mL
same,IC50,[19],3.1 µg/mL
same,IC50,[20],3.1 µg/mL
same,IC50,[21],3.1 µg/mL
Cc1nn(-c2ccccc2)c(=O)n1-n1c(-c2cc3ccccc3oc2=O)cs/c1=N\c1ccccc1,IC50,[1],0.16 µg/mL
Cc1ccc(C(=O)NCc2nnc(S)n2/N=C/c2ccc(Cl)cc2)cc1,MIC,[22],3.12 µg/mL
O=C(CSc1nnc(C2CCN(c3ncnc4ccccc34)CC2)n1-c1ccccc1)Nc1ccc(F)cc1F,EC50,[12],34.5 µg/mL
CC1CCC(O)(c2nnc(-c3ccncc3)[nH]2)CC1 (stereo unspecified),MIC,[17],0.59 µg/mL
CCCCCCCCCCCCCCCCOP(=O)([O-])OCC[N+](C)(C)C [MILTEFOSINE],IC50,[23],3.19 µg/mL
CC1(c2ccccc2O)NN=C(N)N1C(Cc1cc2ccccc2[nH]1)C(=O)O (stereo unspecified),Ratio IC50,[24],36
same,IC50,[23],0.0312 µg/mL
same,Ratio IC50,[25],36
CC(=O)OC1CCN(CC(O)(Cn2cncn2)c2ccc(F)cc2F)CC1 (stereo unspecified),MIC80,[6],9 nM
CC(C)C(C(=O)O)N1C(N)=NNC1(C)c1ccccc1O (stereo unspecified),Ratio IC50,[24],36
same,IC50,[23],0.0312 µg/mL
same,Ratio IC50,[25],36
COc1ccc(/C=N/n2c(S)nnc2CNC(=O)c2ccccc2)cc1,MIC,[22],3.12 µg/mL
COc1ccc(-n2ncn(Cc3cn(Cc4cc(=O)oc5ccc6ccccc6c45)nn3)c2=O)cc1,MIC,[4],1.6 µg/mL
same,Ratio,[5],2
CC(C)C(C(=O)O)N1C(N)=NNC1c1ccccc1O (stereo unspecified),Ratio IC50,[24],36
same,IC50,[23],0.0312 µg/mL
same,Ratio IC50,[25],36
CC1CC(C)(C)CC(O)(c2nnc(-c3ccncc3)[nH]2)C1 (stereo unspecified),MIC,[17],0.59 µg/mL
OC1(c2nnc(-c3ccncc3)[nH]2)CCCCC1,MIC,[17],0.59 µg/mL
O=C(OC1CCN(CC(O)(Cn2cncn2)c2ccc(F)cc2F)CC1)C(F)(F)F (stereo unspecified),MIC80,[6],9 nM
